Reference: US20240182910A1, “DRUG-REGULATABLE TRANSCRIPTION FACTORS” (Senti Biosciences, Inc., priority 2021, published 2024)

Tests used:
[1] = target: T1, mifepristone-inducible transcription factor (Homo sapiens, UniProt P06401, V660L); assay: Transduction assay: mCherry reporter expression, mifepristone-inducible transcription factor; type: cell-based; conditions: U87-MG reporter cells, cell group E; 0, 1, 100, 1000 or 10000 nM mifepristone; FIG. 4
T1 construct: expressed in transfected cells; host or cells: U87-MG reporter cells, lentiviral transduction
Procedure: On day 1, reporter cells were transduced with lentivirus encoding the mifepristone-inducible transcription factor construct.
To assay for mifepristone-regulated transcription modulation, cell group E was thawed and four days later, the cells were split into a 48-well plate and treated with 0 nM, 1 nM, 100 nM, 1000 nM, or 10000 nM mifepristone. Six days after the cells were thawed, cells were trypsinized and then resuspended in FACS buffer plus Sytox Red (fluoresces in APC channel) viability dye. Cell mCherry geometric mean fluorescent intensity (gMFI) was measured at each concentration and normalized to no drug as shown in FIG. 4.

AlcR = AlcR (Emericella nidulans, UniProt P21228); parameters: key: A, activation; DA, deactivation; DR, derepression; conditions: AIR; PAIR (OalcA-PhCMVmin); cited from earlier work
Sequence of AlcR (P21228 whole entry): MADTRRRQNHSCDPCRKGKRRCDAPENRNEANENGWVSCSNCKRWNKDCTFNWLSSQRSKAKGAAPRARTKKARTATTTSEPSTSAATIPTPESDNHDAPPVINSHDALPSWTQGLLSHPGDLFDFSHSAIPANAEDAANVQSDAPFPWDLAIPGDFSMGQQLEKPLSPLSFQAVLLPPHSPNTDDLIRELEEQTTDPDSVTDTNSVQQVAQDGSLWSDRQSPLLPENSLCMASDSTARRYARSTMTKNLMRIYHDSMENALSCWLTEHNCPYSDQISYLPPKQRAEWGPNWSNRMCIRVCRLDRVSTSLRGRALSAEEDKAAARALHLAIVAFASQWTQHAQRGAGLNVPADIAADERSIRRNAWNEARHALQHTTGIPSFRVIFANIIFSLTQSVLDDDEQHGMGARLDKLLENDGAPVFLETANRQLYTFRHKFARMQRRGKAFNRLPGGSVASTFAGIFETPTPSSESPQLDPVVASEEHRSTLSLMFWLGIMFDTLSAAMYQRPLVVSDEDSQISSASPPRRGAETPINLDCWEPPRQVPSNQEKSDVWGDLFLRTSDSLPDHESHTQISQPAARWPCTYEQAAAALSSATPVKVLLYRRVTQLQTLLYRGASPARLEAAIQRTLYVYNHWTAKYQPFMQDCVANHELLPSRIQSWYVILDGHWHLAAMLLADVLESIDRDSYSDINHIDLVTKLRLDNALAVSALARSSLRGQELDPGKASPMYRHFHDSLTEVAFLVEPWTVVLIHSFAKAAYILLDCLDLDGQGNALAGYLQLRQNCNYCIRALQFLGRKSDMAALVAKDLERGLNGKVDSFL

T1 sequence (P06401 with tags, fused parts or gaps V660L): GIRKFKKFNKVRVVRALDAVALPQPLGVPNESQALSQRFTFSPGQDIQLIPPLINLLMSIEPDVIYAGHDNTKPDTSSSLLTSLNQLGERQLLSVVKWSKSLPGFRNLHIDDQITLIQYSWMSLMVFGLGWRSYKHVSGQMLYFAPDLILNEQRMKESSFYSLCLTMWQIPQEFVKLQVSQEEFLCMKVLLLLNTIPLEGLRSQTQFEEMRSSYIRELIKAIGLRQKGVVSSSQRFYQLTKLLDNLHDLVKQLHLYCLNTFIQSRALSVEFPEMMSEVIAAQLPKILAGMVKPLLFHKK

Row | Compound | mCherry expression (mCherry gMFI normalized to no drug) [1] | Response to inducer: T (transgene transcription) (AlcR)
1 | CC#C[C@]1(O)CC[C@H]2[C@@H]3CCC4=CC(=O)CCC4=C3[C@@H](c3ccc(N(C)C)cc3)C[C@@]21C [mifepristone] | induced mCherry expression in the presence of drug in a concentration-dependent manner | 
2 | CC=O [Acetaldehyde] |  | A
